From patent publication US9815796B2 (Merck Sharp & Dohme Corp., priority 2013, dated 2017)

Molecular target: human PDE2A1 (Homo sapiens (Human), UniProt O00408)
Assay: IMAP FP PDE selectivity panel, human PDE2A1
Assay type: biochemical
Conditions: Human PDE2, Lab B; read-out: Human PDE2 Ki (nM) - Lab B
Procedure: Selectivity for PDE2, as compared to other PDE families, was assessed using the IMAP® technology. Human PDE 10A2 enzyme was prepared from cytosolic fractions of transiently transfected HEK cells. All other PDE's were GST Tag human enzyme expressed in insect cells and were obtained from BPS Bioscience (San Diego, Calif.): PDE1A (Cat#60010), human PDE2A1 (Cat#60020), PDE3A (Cat#60030), PDE4A1A (Cat#60040), PDE5A1 (Cat#60050), PDE6C (Cat#60060), PDE7A (Cat#60070), PDE8A1 (Cat#60080), PDE9A2 (Cat#60090), PDE11A4 (Cat#60110).
Assays for PDE 1 through 11 were performed in parallel at room temperature in 384-well microtiter plates with an incubation volume of 20.2 μL. Solutions of test compounds were prepared in DMSO and serially diluted with DMSO to yield 30 μL of each of ten solutions differing by 3-fold in concentration, at 32 serial dilutions per plate. […] A Labcyte POD 810 (Labcyte, Sunnyvale, Calif.) was used to dispense 200 nL from each well of the titration plate to make eleven copies of the assay plate for each titration, one copy for each PDE enzyme. A solution of each enzyme (dilution from aliquots, sufficient to produce 20% substrate conversion) and a separate solution of FAM-labeled cAMP or FAM-labeled cGMP from Molecular Devices (Sunnyvale, Calif., product # R7506 or cGMP#R7508), at a final concentration of 50 nM were made in the assay buffer (10 mM Tris HCl, pH 7.2, 10 mM MgCl2, 0.05% NaN3 0.01% Tween-20, and 1 mM DTT). Note that the substrate for PDE2 is 50 nM FAM cAMP containing 1000 nM of cGMP. The enzyme and the substrate were then added to the assay plates in two consecutive additions of 10 μL and then shaken to mix. The reaction was allowed to proceed at room temperature for 60 minutes. A binding solution was then made from the kit components, comprised of 80% Solution A, 20% Solution B and binding reagent at a volume of 1/600 the total binding solution. The enzymatic reaction was stopped by addition of 60 μL of the binding solution to each well of the assay plate. The plates were sealed and shaken for 10 seconds. The plates were incubated at room temperature for one hour, then the parallel and perpendicular fluorescence was measured using a Tecan Genios Pro plate reader (Tecan, Switzerland). The apparent inhibition constants for the compounds against all 11 PDE's was determined from the parallel and perpendicular fluorescent readings as described for PDE10 FP assay using the following apparent KM values for each enzyme and substrate combination: PDE1A (FAM cGMP) 70 nM, human PDE2A1 (FAM cAMP) 10,000 nM, PDE3A (FAM cAMP) 50 nM, PDE4A1A (FAM cAMP) 1500 nM, PDE5A1 (FAM cGMP) 400 nM, PDE6C (FAM cGMP) 700 nM, PDE7A (FAM cAMP) 150 nM, PDE8A1 (FAM cAMP) 50 nM, PDE9A2 (FAM cGMP) 60 nM, PDE10A2 (FAM cAMP) 150 nM, PDE11A4 (FAM cAMP) 1000 nM. The intrinsic PDE2 inhibitory activity of a compound which may be used in accordance with the present invention may be determined by these assays.

Chain of human PDE2A1 (O00408 other isoform, or with tags, fused parts or gaps): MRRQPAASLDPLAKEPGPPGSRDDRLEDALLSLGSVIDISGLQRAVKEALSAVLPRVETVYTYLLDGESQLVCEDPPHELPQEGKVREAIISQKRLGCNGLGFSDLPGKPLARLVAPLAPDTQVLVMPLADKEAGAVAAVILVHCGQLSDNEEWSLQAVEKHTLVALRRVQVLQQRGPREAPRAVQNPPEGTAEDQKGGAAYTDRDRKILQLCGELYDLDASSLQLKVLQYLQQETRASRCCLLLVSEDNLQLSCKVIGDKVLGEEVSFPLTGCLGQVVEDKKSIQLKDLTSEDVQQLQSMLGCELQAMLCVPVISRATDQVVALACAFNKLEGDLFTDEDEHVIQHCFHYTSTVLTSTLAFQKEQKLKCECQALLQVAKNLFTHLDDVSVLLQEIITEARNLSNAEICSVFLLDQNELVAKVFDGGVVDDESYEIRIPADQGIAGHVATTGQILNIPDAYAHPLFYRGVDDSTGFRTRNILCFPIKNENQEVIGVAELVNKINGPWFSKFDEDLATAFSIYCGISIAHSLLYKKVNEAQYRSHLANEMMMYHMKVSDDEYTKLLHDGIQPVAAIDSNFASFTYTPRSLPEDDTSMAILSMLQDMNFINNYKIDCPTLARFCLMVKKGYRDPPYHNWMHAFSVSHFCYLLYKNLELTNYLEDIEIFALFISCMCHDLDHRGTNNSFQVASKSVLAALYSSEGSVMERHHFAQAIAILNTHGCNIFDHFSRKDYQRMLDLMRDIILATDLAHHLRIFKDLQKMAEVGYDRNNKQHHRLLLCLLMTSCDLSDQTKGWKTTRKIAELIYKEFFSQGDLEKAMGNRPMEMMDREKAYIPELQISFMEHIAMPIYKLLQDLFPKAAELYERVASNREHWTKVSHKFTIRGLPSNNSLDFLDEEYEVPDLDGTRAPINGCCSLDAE

Structure (SMILES)	Ki
Cc1nc(C(=O)N[C@H](C)c2ccc3c(c2)OC(F)(F)O3)cc(=O)[nH]1 [Example 606, N-[(1R)-1-(2,2-difluoro-1,3-benzodioxol-5-yl)ethyl]-2-methyl-6-oxo-1,6-dihydropyrimidine-4-carboxamide]	237 nM
CC(C)(NC(=O)c1cc(=O)[nH]c(-c2ncccn2)n1)c1ccc(SC(F)(F)F)cc1 [Example 577, N-(1-methyl-1-{4-[(trifluoromethyl)sulfanyl]phenyl}ethyl)-6-oxo-1,6-dihydro-2,2′-bipyrimidine-4-carboxamide]	287 nM
CC(NC(=O)c1cc(=O)[nH]c(C2CC2)n1)c1ccc(C(C)(C)C(F)(F)F)cc1 (single isomer, unassigned) [Example 696]	> 2960 nM
CC[C@@H](NC(=O)c1cc(=O)[nH]c(C)n1)c1ccc2c(c1)OC(F)(F)O2 [Example 632, N-[(1R)-1-(2,2-difluoro-1,3-benzodioxol-5-yl)propyl]-2-methyl-6-oxo-1,6-dihydropyrimidine-4-carboxamide]	106 nM
CC1(c2ccc(C(NC(=O)c3cc(=O)[nH]c(-c4ncccn4)n3)C(C)(C)C)cc2F)CC1 (single isomer, unassigned) [Example 716, (S)- or (R)-N-(1-(3-fluoro-4-(1-methylcyclopropyl)phenyl)-2,2-dimethylpropyl)-6-oxo-1,6-dihydro-[2,2′-bipyrimidine]-4-carboxamide]	> 2960 nM
Cc1nc(C(=O)N[C@@H](c2ccc3c(c2)OC(F)(F)O3)C2CC2)cc(=O)[nH]1 [Example 609, N-[(R)-cyclopropyl(2,2-difluoro-1,3-benzodioxol-5-yl)methyl]-2-methyl-6-oxo-1,6-dihydropyrimidine-4-carboxamide]	94 nM

These reach a lower Ki. Values come first.

Ki	Structure (SMILES)
48 nM	CC(C)(C)C(NC(=O)c1cc(=O)[nH]c(-c2ncco2)n1)c1ccc(C(F)(F)F)cc1 (single isomer, unassigned) [Example 682, (R)- or (S)-N-(2,2-dimethyl-1-(4-(trifluoromethyl)phenyl)propyl)-2-(oxazol-2-yl)-6-oxo-1,6-dihydropyrimidine-4-carboxamide]
39 nM	CC(NC(=O)c1cc(=O)[nH]c(-c2ccccc2)n1)c1ccc(C2(C(F)(F)F)CC2)cc1 (single isomer, unassigned) [Example 691, (R)- or (S)-6-oxo-2-phenyl-N-(1-(4-(1-(trifluoromethyl)cyclopropyl)phenyl)-ethyl)-1,6-dihydropyrimidine-4-carboxamide]
30 nM	O=C(N[C@@H](c1ccc2c(c1)OC(F)(F)O2)C1CC1)c1cc(=O)[nH]c(-c2ncccn2)n1 [Example 591, N-[(R)-cyclopropyl(2,2-difluoro-1,3-benzodioxol-5-yl)methyl]-6-oxo-1,6-dihydro-2,2′-bipyrimidine-4-carboxamide]
29 nM	Cc1nc(C(=O)N[C@@H](c2ccc3c(c2)OC(F)(F)O3)C2(C)CC2)cc(=O)[nH]1 [Example 634, N-[(R)-(2,2-difluoro-1,3-benzodioxol-5-yl)(1-methylcyclopropyl)methyl]-2-methyl-6-oxo-1,6-dihydropyrimide-4-carboxamide]
14 nM	Cc1nc(C(=O)N[C@]2(c3ccc(C(F)(F)F)cc3)C[C@@H]2C)cc(=O)[nH]1 (single isomer, unassigned) [Example 671, 2-methyl-N-{2-methyl-1-[4-(trifluoromethyl)phenyl)cyclopropyl}-6-oxo-1,6-dihydropyrimidine-4-carboxamide]
4.3 nM	CC(C)c1ccc([C@H](NC(=O)c2cc(=O)[nH]c(-c3ncccn3)n2)C2(C)CC2)cc1 [Example 562, N-{(R)-(1-methylcyclopropyl)[4-(1-methylethyl)phenyl]methyl}-6-oxo-1,6-dihydro-2,2′-bipyrimidine-4-carboxamide]
1.2 nM	CC(C)(C)[C@@H](NC(=O)c1cc(=O)[nH]c(-c2ccccc2)n1)c1ccc(C2CC2)c(F)c1 [Example 539, N-[(1R)-1-(4-cyclopropyl-3-fluorophenyl)-2,2-dimethylpropyl]-6-oxo-2-phenyl-1,6-dihydropyrimidine-4-carboxamide]
